In EP4667466A1, “PROTAC DEGRADERS OF MLLT1 AND/OR MLLT3” (priority 2024, dated 2025):

Target: T1, MLLT1 (Homo sapiens, UniProt Q03111)
T1 construct: endogenous in cells; host or cells: MV4-11 (ATCC CRL-9591)
T1 sequence (Q03111 1-559): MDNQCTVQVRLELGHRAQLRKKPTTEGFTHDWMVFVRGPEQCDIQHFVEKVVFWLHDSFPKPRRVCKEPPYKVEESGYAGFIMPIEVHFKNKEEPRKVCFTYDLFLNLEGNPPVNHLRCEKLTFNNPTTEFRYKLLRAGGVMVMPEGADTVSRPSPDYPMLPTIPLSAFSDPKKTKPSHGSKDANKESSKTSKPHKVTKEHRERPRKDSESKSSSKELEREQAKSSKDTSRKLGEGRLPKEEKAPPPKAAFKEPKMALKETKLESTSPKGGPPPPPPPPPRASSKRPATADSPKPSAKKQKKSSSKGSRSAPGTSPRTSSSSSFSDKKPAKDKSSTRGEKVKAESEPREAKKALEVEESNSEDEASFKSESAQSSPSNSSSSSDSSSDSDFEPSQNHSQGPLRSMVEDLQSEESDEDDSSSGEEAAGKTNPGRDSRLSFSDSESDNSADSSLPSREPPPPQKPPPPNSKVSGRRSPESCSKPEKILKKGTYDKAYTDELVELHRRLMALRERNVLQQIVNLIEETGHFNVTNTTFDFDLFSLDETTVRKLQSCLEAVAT
Assay: MLLT1 degradation assay (JESS automated chemiluminescent detection) in MV4-11 cells
Format: cell-based
Conditions: 24h, with respect to DMSO control
Protocol: MLLT1 degradation efficacy of compounds was tested in an automated chemiluminescent detection system (JESS, Cat# 004-650). MV4-11 (#CRL-9591, ATCC) cells were seeded at a density of 1.2 million cells/well in a non-treated 6-well cell culture plate in 2.4 mL of complete medium (IMDM + 10% FBS + 1X Penicillin-Streptomycin). 10 mM DMSO stocks were prepared, and cells were treated with three concentrations of test compounds viz. 1000, 100 and 10 nM at a final DMSO concentration of 0.1% and incubated for 24h at 37°C, 5% CO2. Post incubation, cells were centrifuged, washed with HBSS and lysed in 70 uL of RIPA buffer supplemented with Protease inhibitors (sc-24948; Santa Cruz). Subsequently, protein estimation was done using BCA protein assay kit (23225; Pierce). 4 ug protein lysate (4 uL of 1ug/uL lysate) was loaded into each well of the JESS cartridge (SM-WO01; Bio-techne) and the JESS run was performed using 1:900 dilution of anti-human MLLT1 antibody (14893; Cell signaling technology) and 1:1200 dilution of anti-human GAPDH antibody (2118; Cell signaling technology) with anti-rabbit secondary detection module (DM-001; Bio-Techne). Post run, data were analysed using "Compass for SW" software for chemiluminescent detection. The peak area for each band was used for the calculation of MLLT1 degradation with respect to DMSO control. Data is shown as "MLLT1 % degradation". Category A: A ≥ 75% degradation Category B: 50% ≤ B < 75% degradation Category C: 25% ≤ C < 50% degradation Category D: D < 25% degradation Table 1

Compound | inhibition at 0.01 µM | inhibition at 0.1 µM | inhibition at 1 µM
Cc1nn(CCCC2CCN(c3cccc4c3C(=O)N(C3CCC(=O)NC3=O)C4=O)CC2)c2cc(C(=O)Nc3cc4[nH]c([C@H]5CCCN5C)cc4cn3)ccc12 (stereo partly drawn) [Example 27, 1-(3-(1-(2-(2,6-dioxopiperidin-3-yl)-1,3-dioxoisoindolin-4-yl)piperidin-4-yl)propyl)-3-methyl-N-(2-((R)-1-methylpyrrolidin-2-yl)-1H-pyrrolo[3,2-c]pyridin-6-yl)-1H-indazole-6-carboxamide] | ≥ 75% | ≥ 75% | ≥ 75%
Cc1nn(CCCCCCCCNc2cccc3c2C(=O)N(C2CCC(=O)NC2=O)C3=O)c2cc(C(=O)Nc3cc4[nH]c(C5CCCN5C)cc4cn3)ccc12 (racemic) [Example 2, rac-1-(8-{[2-(2,6-dioxopiperidin-3-yl)-1,3-dioxoisoindol-4-yl]amino}octyl)-3-methyl-N-[2-(1-methylpyrrolidin-2-yl)-1H-pyrrolo[3,2-c]pyridin-6-yl]indazole-6-carboxamide] | 50 to 75% | ≥ 75% | ≥ 75%
CN1CCC[C@@H]1c1cc2cnc(NC(=O)c3ccc4c(cnn4CCCCCCCC#Cc4cccc5c4CN(C4CCC(=O)NC4=O)C5=O)c3)cc2[nH]1 (stereo partly drawn) [Example 38, 1-(9-(2-(2,6-dioxopiperidin-3-yl)-1-oxoisoindolin-4-yl)non-8-yn-1-yl)-N-(2-((R)-1-methylpyrrolidin-2-yl)-1H-pyrrolo[3,2-c]pyridin-6-yl)-1H-indazole-5-carboxamide] | 50 to 75% | ≥ 75% | 50 to 75%
Cc1nn(CCCCCCCC#Cc2cccc3c2CN(C2CCC(=O)NC2=O)C3=O)c2cc(C(=O)Nc3cc4[nH]c([C@H]5CCCN5C)c(Cl)c4cn3)ccc12 (stereo partly drawn) [Example 53, N-(3-chloro-2-((R)-1-methylpyrrolidin-2-yl)-1H-pyrrolo[3,2-c]pyridin-6-yl)-1-(9-(2-(2,6-dioxopiperidin-3-yl)-1-oxoisoindolin-4-yl)non-8-yn-1-yl)-3-methyl-1H-indazole-6-carboxamide] | ≥ 75% | ≥ 75% | ≥ 75%
Cc1nn(CCCCCCCC#Cc2cc3c(cc2F)C(=O)N(C2CCC(=O)NC2=O)C3)c2cc(C(=O)Nc3cc4[nH]c([C@H]5CCCN5C)cc4cn3)ccc12 (stereo partly drawn) [Example 60, 1-(9-(2-(2,6-dioxopiperidin-3-yl)-6-fluoro-1-oxoisoindolin-5-yl)non-8-yn-1-yl)-3-methyl-N-(2-((R)-1-methylpyrrolidin-2-yl)-1H-pyrrolo[3,2-c]pyridin-6-yl)-1H-indazole-6-carboxamide] | 25 to 50% | 50 to 75% | ≥ 75%
Cc1nn(CCCCCCCC=C(Cl)c2ccc3c(c2)n(C)c(=O)n3C2CCC(=O)NC2=O)c2cc(C(=O)Nc3cc4[nH]c([C@H]5CCCN5C)cc4cn3)ccc12 (mixture of isomers) [Example 40] | ≥ 75% | ≥ 75% | ≥ 75%
Cc1nn(CCCCCCCC#Cc2cccc3c2CN(C2CCC(=O)NC2=O)C3=O)c2cc(C(=O)Nc3cc4[nH]c([C@H]5CCCN5C)c(C#N)c4cn3)ccc12 (stereo partly drawn) [Example 66, N-(3-cyano-2-((R)-1-methylpyrrolidin-2-yl)-1H-pyrrolo[3,2-c]pyridin-6-yl)-1-(9-(2-(2,6-dioxopiperidin-3-yl)-1-oxoisoindolin-4-yl)non-8-yn-1-yl)-3-methyl-1H-indazole-6-carboxamide] | ≥ 75% | ≥ 75% | ≥ 75%
Cc1nn(CCCCCCCC#Cc2ccc(F)c3c2CN(C2CCC(=O)NC2=O)C3=O)c2cc(C(=O)Nc3cc4[nH]c([C@H]5CCCN5C)cc4cn3)ccc12 (stereo partly drawn) [Example 52, 1-(9-(2-(2,6-dioxopiperidin-3-yl)-7-fluoro-1-oxoisoindolin-4-yl)non-8-yn-1-yl)-3-methyl-N-(2-((R)-1-methylpyrrolidin-2-yl)-1H-pyrrolo[3,2-c]pyridin-6-yl)-1H-indazole-6-carboxamide] | ≥ 75% | ≥ 75% | ≥ 75%
Cc1nn(CCCCCCCCNc2cccc3c2C(=O)N(C2CCC(=O)NC2=O)C3=O)c2cc(C(=O)Nc3cc4[nH]c([C@H]5CCCN5C)c(Cl)c4cn3)ccc12 (stereo partly drawn) [Example 18, N-(3-chloro-2-((R)-1-methylpyrrolidin-2-yl)-1H-pyrrolo[3,2-c]pyridin-6-yl)-1-(8-((2-(2,6-dioxopiperidin-3-yl)-1,3-dioxoisoindolin-4-yl)amino)octyl)-3-methyl-1H-indazole-6-carboxamide] | ≥ 75% | ≥ 75% | ≥ 75%
Cc1nn(C2CCN(CC#Cc3cccc4c3CN(C3CCC(=O)NC3=O)C4=O)CC2)c2cc(C(=O)Nc3cc4[nH]c([C@H]5CCCN5C)cc4cn3)ccc12 (stereo partly drawn) [Example 68, 1-(1-(3-(2-(2,6-dioxopiperidin-3-yl)-1-oxoisoindolin-4-yl)prop-2-yn-1-yl)piperidin-4-yl)-3-methyl-N-(2-((R)-1-methylpyrrolidin-2-yl)-1H-pyrrolo[3,2-c]pyridin-6-yl)-1H-indazole-6-carboxamide] | ≥ 75% | ≥ 75% | 50 to 75%
Cc1nn(CCCCCN2CCN(c3cccc4c3C(=O)N(C3CCC(=O)NC3=O)C4=O)CC2)c2cc(C(=O)Nc3cc4[nH]c([C@H]5CCCN5C)cc4cn3)ccc12 (stereo partly drawn) [Example 47, 1-(5-(4-(2-(2,6-dioxopiperidin-3-yl)-1,3-dioxoisoindolin-4-yl)piperazin-1-yl)pentyl)-3-methyl-N-(2-((R)-1-methylpyrrolidin-2-yl)-1H-pyrrolo[3,2-c]pyridin-6-yl)-1H-indazole-6-carboxamide] | < 25% | < 25% | 50 to 75%
Cc1nn(CCCCCCCC#Cc2ccc3c(c2)n(C)c(=O)n3C2CCC(=O)NC2=O)c2cc(C(=O)Nc3cc4[nH]c([C@H]5CCCN5C)cc4cn3)ccc12 (stereo partly drawn) [Example 39, 1-(9-(1-(2,6-dioxopiperidin-3-yl)-3-methyl-2-oxo-2,3-dihydro-1H benzo[d]imidazol-5-yl)non-8-yn-1-yl)-3-methyl-N-(2-((R)-1-methylpyrrolidin-2-yl)-1H-pyrrolo[3,2-c]pyridin-6-yl)-1H-indazole-6-carboxamide] | ≥ 75% | ≥ 75% | ≥ 75%
Cc1nn(CCCCCCCC#Cc2cccc(N3CCC(=O)NC3=O)c2F)c2cc(C(=O)Nc3cc4[nH]c([C@H]5CCCN5C)cc4cn3)ccc12 [Example 63, (R)-1-(9-(3-(2,4-dioxotetrahydropyrimidin-1(2H)-yl)-2-fluorophenyl)non-8-yn-1-yl)-3-methyl-N-(2-(1-methylpyrrolidin-2-yl)-1H-pyrrolo [3,2-c]pyridin-6-yl)-1H-indazole-6-carboxamide] | < 25% | 50 to 75% | ≥ 75%
Cc1nn(CCCCCCCC#Cc2ccnc(C(=O)N[C@H]3CCC(=O)NC3=O)c2)c2cc(C(=O)Nc3cc4[nH]c([C@H]5CCCN5C)cc4cn3)ccc12 [Example 43, 1-(9-(2-(((S)-2,6-dioxopiperidin-3-yl)carbamoyl)pyridin-4-yl)non-8-yn-1-yl)-3-methyl-N-(2-((R)-1-methylpyrrolidin-2-yl)-1H-pyrrolo [3,2-c]pyridin-6-yl)-1H-indazole-6-carboxamide] | 25 to 50% | 50 to 75% | ≥ 75%
Cc1nn(CCCCCN2CCN(c3cc4c(cc3F)C(=O)N(C3CCC(=O)NC3=O)C4=O)CC2)c2cc(C(=O)Nc3cc4[nH]c([C@H]5CCCN5C)cc4cn3)ccc12 (stereo partly drawn) [Example 23, 1-(5-(4-(2-(2,6-dioxopiperidin-3-yl)-6-fluoro-1,3-dioxoisoindolin-5-yl)piperazin-1-yl)pentyl)-3-methyl-N-(2-((R)-1-methylpyrrolidin-2-yl)-1H-pyrrolo[3,2-c]pyridin-6-yl)-1H-indazole-6-carboxamide] | ≥ 75% | ≥ 75% | ≥ 75%
